From ChEMBL document CHEMBL4610009, “Modification of the lead molecule: Tryptophan and piperidine appended triazines reversing inflammation and hyeperalgesia in rats” (Bioorg Med Chem, 2020)
In brackets after ≈: the same amount, converted by molar mass. Values belong to the molecule of their own block, whether it stands above or below them. Activity calls are given as the source filed them. The calls are words filed in the database; no cut-off is given here.

Experiments:
[1] = biological target: T1, Prostaglandin G/H synthase 1 (Ovis aries, UniProt P05979); experiment: Inhibition of ovine COX1 using arachidonic acid as substrate incubated for 10 mins followed by substrate addition and measured after 2 mins by EIA assay
T1 sequence (P05979 whole entry): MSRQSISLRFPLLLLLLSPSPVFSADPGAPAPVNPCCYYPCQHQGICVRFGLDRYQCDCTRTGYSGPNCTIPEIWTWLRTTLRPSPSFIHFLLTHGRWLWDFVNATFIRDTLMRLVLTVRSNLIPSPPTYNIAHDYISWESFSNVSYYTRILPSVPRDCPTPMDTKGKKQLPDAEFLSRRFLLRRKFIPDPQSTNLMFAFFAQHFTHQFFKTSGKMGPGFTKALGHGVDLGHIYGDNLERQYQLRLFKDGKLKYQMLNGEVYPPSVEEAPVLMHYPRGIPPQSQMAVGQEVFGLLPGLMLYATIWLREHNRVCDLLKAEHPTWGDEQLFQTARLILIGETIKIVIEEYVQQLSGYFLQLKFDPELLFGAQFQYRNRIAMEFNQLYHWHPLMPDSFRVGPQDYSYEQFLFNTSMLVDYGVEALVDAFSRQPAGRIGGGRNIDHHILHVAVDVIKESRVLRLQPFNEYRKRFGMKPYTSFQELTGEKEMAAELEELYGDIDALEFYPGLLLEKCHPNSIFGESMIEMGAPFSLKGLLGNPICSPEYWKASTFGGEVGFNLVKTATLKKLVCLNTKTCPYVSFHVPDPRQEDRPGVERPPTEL

Rattus norvegicus [2] = experiment: Analgesic activity in Wistar rat assessed as reduction in acetic acid-induced writhing at 10 mg/kg, ip incubated for 30 mins followed by acetic acid addition and observed for 30 mins; type: functional, organism-based
[3] = biological target: Prostaglandin G/H synthase 1 (Homo sapiens) (UniProt P23219); experiment: Inhibition of calcium ionophore-activated COX1 in human whole blood assessed as TXB2 level at 1 uM by ELISA; type: tissue-based
Sequence of Prostaglandin G/H synthase 1 (Homo sapiens) (P23219 whole entry): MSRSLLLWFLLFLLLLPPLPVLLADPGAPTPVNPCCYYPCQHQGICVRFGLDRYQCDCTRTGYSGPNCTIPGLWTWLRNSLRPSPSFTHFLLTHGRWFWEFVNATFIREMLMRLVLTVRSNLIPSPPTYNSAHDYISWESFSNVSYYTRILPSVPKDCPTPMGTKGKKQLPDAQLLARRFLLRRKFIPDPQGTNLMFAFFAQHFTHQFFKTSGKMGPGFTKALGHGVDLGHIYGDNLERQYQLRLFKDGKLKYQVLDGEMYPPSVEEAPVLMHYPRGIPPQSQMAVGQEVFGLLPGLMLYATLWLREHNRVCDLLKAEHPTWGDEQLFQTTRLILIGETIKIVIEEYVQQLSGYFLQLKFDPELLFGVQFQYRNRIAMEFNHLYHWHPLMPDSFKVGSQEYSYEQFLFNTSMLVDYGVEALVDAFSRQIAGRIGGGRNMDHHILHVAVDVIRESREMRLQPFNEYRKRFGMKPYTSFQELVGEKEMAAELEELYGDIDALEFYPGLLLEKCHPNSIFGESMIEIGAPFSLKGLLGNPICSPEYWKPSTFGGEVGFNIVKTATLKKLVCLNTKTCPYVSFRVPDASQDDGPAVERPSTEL

Rattus norvegicus [4] = experiment: Analgesic activity in Wistar rat assessed as reduction in acetic acid-induced writhing at 10 mg/kg, ip incubated for 30 mins followed by acetic acid addition and observed for 30 mins relative to control; type: functional; details: 0.5 h
Rattus norvegicus [5] = experiment: Analgesic activity in Wistar rat assessed as reduction in formalin-induced flitching in neurogenic phase at 10 mg/kg, ip incubated for 30 mins followed by formalin addition and observed for 60 mins; type: functional, organism-based
[6] = biological target: T2, Prostaglandin G/H synthase 2 (Rattus norvegicus) (UniProt P35355); experiment: In vivo inhibition of COX2 in Wistar rat assessed as reduction in formalin-induced COX2 expression at 10 mg/kg, ip incubated for 30 mins followed by formalin addition and measured after 2 hrs by immunofluorescence based assay; type: functional, organism-based
T2 sequence (whole entry): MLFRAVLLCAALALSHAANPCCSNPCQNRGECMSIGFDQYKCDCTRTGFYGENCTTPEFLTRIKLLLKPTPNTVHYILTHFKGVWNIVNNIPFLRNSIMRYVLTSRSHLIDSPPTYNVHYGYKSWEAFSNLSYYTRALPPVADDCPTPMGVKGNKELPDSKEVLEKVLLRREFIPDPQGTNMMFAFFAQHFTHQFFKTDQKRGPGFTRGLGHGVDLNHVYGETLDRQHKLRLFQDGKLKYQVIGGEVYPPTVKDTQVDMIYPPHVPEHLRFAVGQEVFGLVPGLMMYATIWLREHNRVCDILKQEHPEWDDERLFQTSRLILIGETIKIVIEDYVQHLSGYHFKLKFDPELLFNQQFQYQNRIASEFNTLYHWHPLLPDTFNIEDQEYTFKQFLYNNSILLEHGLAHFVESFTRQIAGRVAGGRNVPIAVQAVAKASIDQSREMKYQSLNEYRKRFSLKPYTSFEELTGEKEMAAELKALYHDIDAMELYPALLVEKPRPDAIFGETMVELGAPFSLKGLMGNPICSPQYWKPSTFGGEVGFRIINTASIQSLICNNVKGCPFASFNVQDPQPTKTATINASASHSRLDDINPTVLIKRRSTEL

[7] = Acute toxicity in Wistar rat assessed as behavioral alterations at 2000 mg/kg, po observed for 14 days; type: organism-based; details: in vivo, 336 h
[8] = Acute toxicity in Wistar rat assessed as effect on liver at 2000 mg/kg, po measured after 14 days by hematoxylin-eosin staining based light microscopy; type: organism-based; details: in vivo, 336 h
[9] = Acute toxicity in Wistar rat assessed as effect on kidney at 2000 mg/kg, po measured after 14 days by hematoxylin-eosin staining based light microscopy; type: organism-based; details: in vivo, 336 h
[10] = Protein binding in plasma (unknown origin); type: ADME, cell-free; details: read-out: PPB (converted)
[11] = Ratio of drug level in brain to blood (unknown origin); type: ADME, tissue-based; details: read-out: BBR
[12] = Solubility of compound in pure water; type: physicochemical
[13] = Drug absorption in human intestine; type: ADME, tissue-based; details: read-out: Drug absorption
Rattus norvegicus [14] = experiment: Analgesic activity in Wistar rat assessed as reduction in formalin-induced flitching in inflammatory phase at 10 mg/kg, ip incubated for 30 mins followed by formalin addition and observed for 60 mins; type: functional, organism-based

IC50 [1]: > 10 µM
SMILES: COC(=O)[C@H](Cc1c[nH]c2ccccc12)n1cc(COc2nc(Cl)nc(N3CCOCC3)n2)nn1

SMILES: COC(=O)[C@H](Cc1cn(-c2nc(Cl)nc(Nc3ccc(N4CCOCC4=O)cc3)n2)c2ccccc12)NC(=O)OC(C)(C)C
Activity (Rattus norvegicus [2]): Active

SMILES: COC(=O)[C@@H]1CCCN1c1nc(Cl)nc(Nc2ccc(N3CCOCC3=O)cc2)n1
Activity (Rattus norvegicus [2]): Active

SMILES: COC(=O)[C@@H](N)Cc1cn(-c2nc(Cl)nc(N3CCCCC3)n2)c2ccccc12
IC50 [1]: > 10 µM
Activity [3]: 0.84 ng/mL
inhibition in vivo at 10 mg/kg (Rattus norvegicus [4]): 65%
Activity (Rattus norvegicus [5]): Active
inhibition [6]: Active
Activity [7]: Non-Toxic
Activity [8]: Non-Toxic
Activity [9]: Non-Toxic
fraction unbound [10]: 0.149
Kp [11]: 0.66
solubility [12]: 740 µg/mL (≈ 1.78 mM)
Fa [13]: 98.2%
Activity (Rattus norvegicus [14]): Active

IC50 [1]: 1 µM
fraction unbound [10]: 0.324
Kp [11]: 0.19
solubility [12]: 5810 µg/mL (≈ 14.4 mM)
Fa [13]: 96.9%
SMILES: N[C@@H](Cc1cn(-c2nc(Cl)nc(N3CCOCC3)n2)c2ccccc12)C(=O)O

SMILES: COC(=O)[C@@H](N)Cc1ccc(Oc2nc(Cl)nc(N3CCOCC3)n2)cc1
Activity (Rattus norvegicus [2]): Active

IC50 [1]: > 10 µM
SMILES: O=C(O)c1ccccc1Nc1nc(Cl)nc(Nc2ccc(N3CCOCC3=O)cc2)n1

IC50 [1]: > 10 µM
SMILES: COC(=O)[C@@H](N)Cc1ccc(Oc2nc(Cl)nc(N3CCCCC3)n2)cc1

IC50 [1]: > 10 µM
SMILES: COC(=O)[C@H](Cc1ccc(O)cc1)n1cc(COc2nc(Cl)nc(Nc3ccc(N4CCOCC4=O)cc3)n2)nn1

IC50 [1]: 5 µM
SMILES: COC(=O)[C@H](Cc1ccccc1)n1cc(COc2nc(Cl)nc(Nc3ccc(Cl)cc3)n2)nn1

IC50 [1]: 8 µM
SMILES: Clc1nc(OCc2cn(Cc3ccccc3)nn2)nc(N2CCCC2)n1

Activity [3]: 0.59 ng/mL
SMILES: COc1ccc2c(c1)c(CC(=O)O)c(C)n2C(=O)c1ccc(Cl)cc1 [INDOMETHACIN]
inhibition in vivo at 10 mg/kg (Rattus norvegicus [4]): 70%
Activity (Rattus norvegicus [5]): Active
Activity (Rattus norvegicus [14]): Active

IC50 [1]: > 10 µM
fraction unbound [10]: 0.143
Kp [11]: 0.01
solubility [12]: 4910 µg/mL (≈ 13.1 mM)
Fa [13]: 96.8%
SMILES: O=C1COCCN1c1ccc(Nc2nc(Cl)nc(N3CCCC3)n2)cc1

IC50 [1]: > 10 µM
SMILES: COC(=O)[C@H](Cc1ccc(O)cc1)n1cc(COc2nc(Cl)nc(N3CCOCC3)n2)nn1

IC50 [1]: > 10 µM
SMILES: COC(=O)[C@H](Cc1c[nH]c2ccccc12)n1cc(COc2nc(Cl)nc(N3CCCCC3)n2)nn1

IC50 [1]: > 10 µM
SMILES: COC(=O)[C@H](Cc1ccccc1)Nc1nc(Cl)nc(Nc2ccc(N3CCOCC3=O)cc2)n1
Activity (Rattus norvegicus [2]): Active

IC50 [1]: > 10 µM
SMILES: CC[C@H](C)[C@H](Nc1nc(Cl)nc(Nc2ccc(N3CCOCC3=O)cc2)n1)C(=O)OC
Activity (Rattus norvegicus [2]): Active

IC50 [1]: > 10 µM
SMILES: Clc1nc(OCc2cn(Cc3ccccc3)nn2)nc(N2CCOCC2)n1

IC50 [1]: > 10 µM
SMILES: COC(=O)[C@H](Cc1ccccc1)n1cc(COc2nc(Cl)nc(N3CCOCC3)n2)nn1

IC50 [1]: > 10 µM
Activity [3]: 0.9 ng/mL
inhibition [6]: Active
fraction unbound [10]: 0.124
Kp [11]: 0.09
solubility [12]: 30 µg/mL (≈ 0.0575 mM)
Fa [13]: 97.2%
SMILES: COC(=O)[C@@H](N)Cc1cn(-c2nc(Cl)nc(Nc3ccc(N4CCOCC4=O)cc3)n2)c2ccccc12
inhibition in vivo at 10 mg/kg (Rattus norvegicus [4]): 73%
Activity (Rattus norvegicus [5]): Active
Activity (Rattus norvegicus [14]): Active

IC50 [1]: > 10 µM
SMILES: COC(=O)[C@H](Cc1ccc(O)cc1)n1cc(COc2nc(Cl)nc(N3CCCC3)n2)nn1

IC50 [1]: > 10 µM
SMILES: COC(=O)[C@H](Cc1ccccc1)n1cc(COc2nc(Cl)nc(N3CCCC3)n2)nn1

IC50 [1]: 6 µM
SMILES: O=C1COCCN1c1ccc(Nc2nc(Cl)nc(OCc3cn(Cc4ccccc4)nn3)n2)cc1

IC50 [1]: 8 µM
SMILES: COC(=O)[C@H](Cc1ccccc1)n1cc(COc2nc(Cl)nc(Nc3ccc(N4CCOCC4=O)cc3)n2)nn1

IC50 [1]: 4 µM
SMILES: Clc1ccc(Nc2nc(Cl)nc(OCc3cn(Cc4ccccc4)nn3)n2)cc1
